Data from ChEMBL document CHEMBL1201862, “PubChem BioAssay data set” (2004).
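Test compounds were applied to cells in 96-well plates for 48 hours at 5 doses. GI50 marks 50% less growth.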 The source made the active and inactive calls. Cut-off read from the data, not from the text of the source: active = GI50 up to about 1.1 µM and inactive = higher.

How the values were obtained:
Test in all cases: NCI-60 cell line screen, 48 h
BT-549 = system: BT-549
DU-145 = system: DU-145
HCT-116 = system: HCT-116
HOP-62 = system: HOP-62
Hs-578T = system: Hs-578T
KM12 = system: KM12
MDA-N = system: MDA-N
Malme-3M = system: Malme-3M
NCI-H23 = system: NCI-H23
OVCAR-3 = system: OVCAR-3
RXF 393 = system: RXF 393
SK-OV-3 = system: SK-OV-3
SNB-19 = system: SNB-19
T47D = system: T47D
TK-10 = system: TK-10
U-251 = system: U-251
A498 = system: A498
NCI-H460 = system: NCI-H460
SNB-75 = system: SNB-75

Measured: GI50

S=C(N1CCN(c2ccc(Cl)c(Cl)c2)CC1)N1CCN(c2ccc(Cl)c(Cl)c2)CC1
inactive: BT-549 16.2 µM | DU-145 12.4 µM | HCT-116 7.19 µM | HOP-62 12.5 µM | Hs-578T 6.52 µM | KM12 14.1 µM | MDA-N 11.6 µM | Malme-3M 14.2 µM | NCI-H23 15.3 µM | OVCAR-3 13.5 µM | RXF 393 14.3 µM | SK-OV-3 12.5 µM | SNB-19 12.5 µM | T47D 7.94 µM | TK-10 13.4 µM | U-251 14.7 µM

C1=N\CCN2CCN(CC/N=C\c3ccc(cc3)OCc3cccc(n3)COc3ccc/1cc3)CC2
inactive: A498 > 50 µM | BT-549 > 50 µM | DU-145 > 50 µM | HCT-116 > 50 µM | HOP-62 > 50 µM | Hs-578T 32.7 µM | KM12 > 50 µM | Malme-3M 26.9 µM | NCI-H23 > 50 µM | NCI-H460 > 50 µM | OVCAR-3 28.8 µM | RXF 393 11.6 µM | SK-OV-3 > 50 µM | SNB-19 > 50 µM | SNB-75 > 50 µM | TK-10 > 50 µM | U-251 > 50 µM

O=c1[nH]nc(Cc2ccc(Cl)cc2)n1/N=C/c1ccco1
inactive: A498 > 100 µM | BT-549 40.6 µM | DU-145 > 100 µM | HCT-116 93.1 µM | HOP-62 48.6 µM | KM12 > 100 µM | MDA-N > 100 µM | Malme-3M > 100 µM | NCI-H23 34.8 µM | NCI-H460 > 100 µM | OVCAR-3 > 100 µM | RXF 393 26.5 µM | SK-OV-3 80.2 µM | SNB-19 25.4 µM | SNB-75 28.6 µM | T47D > 100 µM | U-251 39.7 µM

CC(C)=C[C@@H]1C[C@H](C)c2c(O)cc(C)c3c2C1=C(C)C(=O)C3=O [ELISABATIN A]
inactive: A498 19.1 µM | BT-549 13.7 µM | DU-145 15.3 µM | HCT-116 15.2 µM | HOP-62 17.4 µM | Hs-578T 19.6 µM | KM12 15.6 µM | MDA-N 16.3 µM | Malme-3M 16 µM | NCI-H23 13.5 µM | NCI-H460 18 µM | OVCAR-3 14.5 µM | SK-OV-3 16.7 µM | SNB-19 14.4 µM | SNB-75 17.4 µM | TK-10 22.3 µM | U-251 13.8 µM

N#Cc1c(-c2ccc([N+](=O)[O-])cc2)cc(-c2ccc(Nc3ccnc4cc(Cl)ccc34)cc2)[nH]c1=O
inactive: A498 > 100 µM | BT-549 > 100 µM | DU-145 > 100 µM | HCT-116 > 100 µM | HOP-62 67.3 µM | KM12 4.01 µM | Malme-3M > 100 µM | NCI-H23 93.3 µM | NCI-H460 > 100 µM | OVCAR-3 > 100 µM | RXF 393 > 100 µM | SK-OV-3 > 100 µM | SNB-19 63.8 µM | SNB-75 > 100 µM | T47D > 100 µM | TK-10 98.9 µM | U-251 > 100 µM

O=C(N/N=C1/C(=O)c2c3ccccc3cc3cccc1c23)c1cccc(Cl)c1
inactive: A498 > 100 µM | BT-549 > 100 µM | DU-145 70.3 µM | HCT-116 > 100 µM | HOP-62 28.9 µM | Hs-578T 16 µM | KM12 > 100 µM | MDA-N > 100 µM | NCI-H23 > 100 µM | NCI-H460 79.4 µM | OVCAR-3 > 100 µM | RXF 393 > 100 µM | SK-OV-3 > 100 µM | SNB-19 41.4 µM | SNB-75 > 100 µM | U-251 94.8 µM

COC(=O)C(=O)C(C(=O)C(=O)Nc1ccccc1C(C)=O)c1nc2ccc(C(=O)c3ccccc3)cc2nc1O (configuration not stated)
inactive: A498 > 100 µM | BT-549 > 100 µM | HCT-116 > 100 µM | HOP-62 45.2 µM | Hs-578T 47.2 µM | KM12 27 µM | MDA-N 40.2 µM | Malme-3M > 100 µM | NCI-H23 35.2 µM | NCI-H460 58.9 µM | OVCAR-3 73.6 µM | RXF 393 51.5 µM | SK-OV-3 > 100 µM | SNB-19 52 µM | SNB-75 32.7 µM | T47D 56.4 µM | TK-10 > 100 µM

C=C1C(=O)OC2C1C(=O)C/C(C)=C/CCC1(C)OC21 (configuration not stated)
inactive: A498 23.1 µM | BT-549 23.3 µM | DU-145 17.4 µM | HCT-116 14.8 µM | HOP-62 14.2 µM | Hs-578T 44.1 µM | KM12 23.6 µM | NCI-H23 19.5 µM | NCI-H460 21.2 µM | OVCAR-3 15.1 µM | RXF 393 15.4 µM | SK-OV-3 29.6 µM | SNB-19 38.4 µM | SNB-75 25.4 µM | T47D 11.2 µM | TK-10 16.1 µM | U-251 19.5 µM

Cc1ccc2c(n1)NC(=O)C(Cc1ccccc1)(N=[N+]=[N-])C2=O (configuration not stated)
inactive: A498 > 100 µM | BT-549 > 100 µM | DU-145 > 100 µM | HCT-116 > 100 µM | HOP-62 > 100 µM | KM12 > 100 µM | MDA-N > 100 µM | Malme-3M > 100 µM | NCI-H23 > 100 µM | NCI-H460 > 100 µM | OVCAR-3 > 100 µM | RXF 393 > 100 µM | SK-OV-3 > 100 µM | SNB-19 > 100 µM | T47D 67 µM | TK-10 > 100 µM | U-251 > 100 µM

O=c1oc2ccccc2cc1-c1cn2c(n1)sc1ccccc12
inactive: BT-549 > 100 µM | DU-145 > 100 µM | HCT-116 75.5 µM | HOP-62 > 100 µM | Hs-578T > 100 µM | KM12 93.5 µM | MDA-N > 100 µM | NCI-H23 > 100 µM | NCI-H460 > 100 µM | OVCAR-3 > 100 µM | RXF 393 > 100 µM | SK-OV-3 > 100 µM | SNB-75 > 100 µM | T47D > 100 µM | TK-10 > 100 µM | U-251 83 µM

CCCc1cn2c(/C=N/N=C(N)N)c(-c3c(OC)ccc(OC)c3[N+](=O)[O-])nc2s1
inactive: A498 21.2 µM | BT-549 10.9 µM | DU-145 16 µM | HCT-116 6.18 µM | HOP-62 12.6 µM | Hs-578T 13.1 µM | KM12 3.16 µM | Malme-3M 10.3 µM | NCI-H23 10.9 µM | NCI-H460 12.3 µM | OVCAR-3 4.69 µM | RXF 393 9.55 µM | SK-OV-3 18.1 µM | SNB-19 18.4 µM | SNB-75 16.3 µM | T47D 3.7 µM | TK-10 16.8 µM | U-251 4.74 µM

CC(=O)/C(=C/n1c(=S)sc2ccccc21)C(=O)Nc1ccccc1C
inactive: A498 > 100 µM | BT-549 > 100 µM | DU-145 > 100 µM | HCT-116 > 100 µM | HOP-62 > 100 µM | KM12 > 100 µM | MDA-N > 100 µM | NCI-H23 > 100 µM | NCI-H460 > 100 µM | OVCAR-3 59.4 µM | RXF 393 > 100 µM | SK-OV-3 > 100 µM | SNB-19 > 100 µM | SNB-75 > 100 µM | T47D 40.9 µM | TK-10 > 100 µM | U-251 > 100 µM
